Data: US9029574B2, “Bicyclic compound and use thereof for medical purposes” (Ono Pharmaceutical Co., Ltd., priority 2011, dated 2015)

Experiments:
[1] = test system: male dog (TOYO Beagle); experiment: Intraocular pressure lowering action in dog after ocular instillation; type: in vivo; settings: for Maximum of intraocular pressure lowering rate (%): ocular instillation 30 μL, maximum among 2, 4, 6, 8 and 24 hours; for intraocular pressure lowering action as compared with latanoprost: ocular instillation, in words
Method: As can be easily understood by a person skilled in the art, in an in vivo test, since regarding all test compounds, carboxylic acid which is an active body has bad corneal permeability, pharmacological action of the active body was assessed by ocular instillation administration of a compound which had been converted into an ester such as a methyl ester, an ethyl ester, an isopropyl ester etc. In addition, in a group of the compound of the present inventions, by ocular instillation administration of the ester body in an experimental animal (rabbit, dog etc.) by which pharmacological action is confirmed below and, thereafter, measurement of a drug concentration of carboxylic acid in an aqueous humor, it was confirmed that the ester is rapidly converted into corresponding carboxylic acid.
(2-1) Intraocular Pressure Lowering Action
To one eye of a male dog (TOYO Beagle) which had been sufficiently acclimated in advance, 30 μL of each test compound (the compound of Example 16 (35), the compound of Example 16 (3) and the compound of Example 16 (25)) which had been adjusted with a base (containing citrate buffer pH 6.5, 0.5% polysorbate 80, 1% propylene glycol, […]), was ocular-instilled respectively. The other eye was not treated. As a positive control compound, latanoprost which is the known compound was used.
Thereafter, an ocular surface anesthetic (Benoxil eye drops 0.4%, Santen Pharmaceutical Co., Ltd.) was subjected to ocular instillation to locally anesthetize eyes, and an intraocular pressure of each test compound before ocular instillation and after 2, 4, 6, 8, and 24 hours from ocular instillation was measured. An intraocular pressure was measured using a pneumatic applanation flat tonometer (Model 30 Classic, REICHERT). An intraocular pressure lowering rate (%) was calculated by the following equation.

[2] = test system: male monkey (crab-eating monkey); experiment: Intraocular pressure lowering action in monkey under consciousness; type: in vivo; settings: ocular instillation 30 μL, 10 μg/mL; for Maximum intraocular pressure lowering rate (%): maximum up to 24 hours
Method: (2-3) Intraocular Pressure Lowering Action in Monkey Under Consciousness
To a left eye of a male monkey (crab-eating monkey) under consciousness, 30 μL of a solution obtained by adjusting a test substance with using the same base as that described above was ocular instillation-administered and, to a right eye, 30 μL of a solution of only a base as a control was ocular instillation-administered, respectively. An intraocular pressure after administration was measured with time from administration initiation until 24 hours. In case of measurement of an intraocular pressure, a crab-eating monkey was fixed on a monkey chair, and the monkey was anesthetized by ocular instillation-administering an ocular surface anesthetic (Benoxil eye drops 0.4% Santen Pharmaceutical Co., Ltd.). After mounting of a blepharostat (Handaya Co., Ltd.), an intraocular pressure of both eyes was measured (5 to 8 examples per group) with using a pneumatic applanation flat tonometer (Model 30 Classic, REICHERT). A difference in an intraocular pressure value between control eyes and eyes to which a test substance had been administered, was calculated as an intraocular pressure lowering rate with using the following equation, and sustainability of intraocular eye lowering action was assessed using a maximum intraocular pressure lowering rate during measurement and an intraocular pressure lowering rate after 24 hours. As the test substance, the Comparative Compound B, and the compounds of Example 16 (3), Example 16 (25) and Example 16 (35) were used, and an administration dose was 10 μg/mL in all cases.

[3] = test system: male rabbit (NewZealandWhite); experiment: Aqueous humor protein concentration in rabbit after ocular instillation; type: in vivo; settings: ocular instillation 30 μL of 0.1% (w/v), aqueous humor collected 0 to 8 hours
Method: (2-2) Assessment of Ocular Stimulating Property and Aqueous Humor Protein Concentration
To one eye of a male rabbit (NewZealandWhite, 2.0 to 3.0 kg), 30 μL of the compound of Example 16 (35), the compound of Example 16 (3) and the compound of Example 16 (25) which had been adjusted to 0.1% (w/v) with a base (containing citrate buffer pH 6.5, 0.5% polysorbate 80, 1% propylene glycol, 0.01% benzalkonium chloride), was ocular-instilled respectively. Thereafter, an aqueous humor in anterior chamber after 0, 1, 2, 4, 6 and 8 hours from ocular instillation was collected, and a protein concentration in the humor was measured. As a comparative compound, the aforementioned methyl ester of the compound of Example 12 described in Patent Literature 2 (i.e. compound of Example 10 described in Patent Literature 2) (hereinafter, abbreviated as Comparative Compound B in some cases) was used.
Regarding any test compound, a dose until a dissolution limit (150 to 1000 μg/mL) was administered and action of each active body was assessed.

[4] = target: T1, mouse IP receptor (Mus musculus, UniProt P43252); experiment: Measurement of IP agonist activity (cAMP concentration) in IP-CHO cells; type: cell-based; settings: IP-CHO cells, intracellular cAMP production amount; read-out: Agonist activity on various prostanoid receptors: EC50 value (nmol/L) IP
T1 construct: expressed in transfected cells; host or cells: CHO cells (IP-CHO)
Text: (§1) (1-1) Measurement of Agonist Activity on Various Mouse Prostanoid Receptors
(§2) With using CHO cells (FP-CHO, EP1-CHO and IP-CHO, respectively) in which various mouse prostanoid receptors were forcibly expressed, respectively, agonist activity of test compounds on various prostanoid receptors was studied employing an intracellular calcium concentration regarding FP and EP1, and an intracellular cyclic AMP (hereinafter, abbreviated as cAMP) production amount regarding IP, as an index.
(§3) The test compound was dissolved with dimethyl sulfoxide (DMSO) to prepare a 10 mmol/L solution. Regarding the prepared 10 mmol/L solution, upon use, the 10 mmol/L solution was thawed; step wisely-diluted using DMSO; and diluted with a buffer solution for measurement or a buffer solution for measurement 2, which was subjected to an experiment.
(§4) Cells forcibly expressing various mouse prostanoid receptors were standing-cultured at 37° C. in the presence of 5% CO2 with using an α-MEM medium (Sigma) (for culturing FP-CHO and EP1-CHO) containing inactivated (56° C., 30 minutes) 9.8 vol % dialysed-FBS (Invitrogen) and penicillin-streptomycin-glutamine (GIBCO-BRL), or nucleic acid-containing α-MEM (Sigma) (for culturing IP-CHO) containing inactivated (56° C., 30 minutes) 9.8 vol % dialysed-FBS (Invitrogen) and penicillin-streptomycin glutamine (Invitrogen). Subculturing was performed by the following method.
(§5) After collecting cells into a centrifuging tube, cells were centrifuged at 120 g for 3 minutes at room temperature and the supernatant was removed. Cells were suspended in a suitable amount of a medium, and seeded in a culturing flask.
(1-3) Measurement of IP Agonist Activity (Measurement of cAMP Concentration)
Cells were suspended in a suitable amount of a buffer solution for measurement 1 (MEM medium (Invitrogen) containing 0.1 w/v % bovine serum albumin (Sigma) and 2 μmol/L diclofenac (Sigma)), and centrifuged at room temperature for 3 minutes at 500 g, and the supernatant was removed. Cells were suspended in a buffer solution for measurement 2 (MEM medium (Invitrogen) containing 0.1 w/v % bovine serum albumin (Sigma), 2 μmol/L diclofenac (Sigma) and 1 mmol/L 3-isobutyl-1-methylxanthine), and each 25 μL of the suspension was dispensed at a density of 5.0×10^4 cells/well into a 96-well ½ area plate. A buffer solution for measurement 2 (25 μL) containing an agonist at a variety of concentrations was added to perform a reaction at room temperature for 30 minutes. Measurement of a cAMP concentration was performed with using the cAMP HTRF HiRange kit (CIS bio International). According to the two step protocol of the kit manual, each 25 μL of cAMP-D2 and cryptase diluted with a lysis buffer were added, followed by incubation at room temperature for 1 hour. After incubation for 1 hour, time resolved fluorescence at 620 nm and 660 nm in case of beging excited at 340 nm was measured using Analyst GT (Molecular Device), and a ratio (TRF ratio) was obtained, by which a cAMP concentration was calculated from a calibration line.
(§6) With using measured values obtained from the above method, an EC50 value as an index of agonist activity of the compound of the present invention on mouse FP, mouse EP1 and mouse IP receptors was calculated.

[5] = target: T2, mouse EP1 receptor (Mus musculus, UniProt P35375); experiment: Measurement of EP1 agonist activity (intracellular calcium concentration) in EP1-CHO cells; type: cell-based; settings: EP1-CHO cells, intracellular calcium concentration; read-out: Agonist activity on various prostanoid receptors: EC50 value (nmol/L) EP1
T2 construct: expressed in transfected cells; host or cells: CHO cells (EP1-CHO)
T2 sequence (P35375 1-405): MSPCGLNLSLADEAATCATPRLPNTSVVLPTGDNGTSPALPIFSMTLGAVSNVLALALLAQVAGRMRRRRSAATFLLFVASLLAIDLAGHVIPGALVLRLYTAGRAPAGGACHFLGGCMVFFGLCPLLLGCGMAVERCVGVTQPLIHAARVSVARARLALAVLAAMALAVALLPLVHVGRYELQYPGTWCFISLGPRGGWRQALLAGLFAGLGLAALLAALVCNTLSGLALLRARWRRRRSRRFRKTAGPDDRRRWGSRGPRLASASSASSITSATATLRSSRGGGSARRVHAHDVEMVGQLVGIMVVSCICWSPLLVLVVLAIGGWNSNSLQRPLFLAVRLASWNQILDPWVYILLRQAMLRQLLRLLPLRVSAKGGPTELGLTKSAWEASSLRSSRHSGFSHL
Text: as §1, §2, §3, §4, §5
(§7) (1-2) Measurement of FP and EP1 Agonist Activity (Measurement of Intracellular Calcium Concentration)
(§8) Regarding FP-CHO and EP1-CHO, by the same method as that of subculturing, cells were peeled and suspended. Before two days from measurement, cells were seeded at a density of 1.0×10^4 cells/well into a 96-well UV plate, and standing-cultured at 37° C. in the presence of 5% CO2. […] To each well, 100 μL of a medium containing 5 μmol/L fura 2-AM (DOJINDO), 2.5 mmol/L Probenecid (Sigma), 20 μmol/L indometacin (Sigma) and 10 mmol/L HEPES (Invitrogen) was added, and cells were incubated for about 60 minutes in a CO2 incubator. After completion of the incubation, the medium was removed, and cells were washed with a buffer solution for measurement (Hank's balanced salt solution (Nissui Pharmaceutical Co., Ltd., 9.8 g of the present product was dissolved in 1 L distilled water) containing 0.1 or 1 w/v % bovine serum albumin, 2 μmol/L indometacin, 2.5 mmol/L Probenecid and 10 mmol/L HEPES-NaOH (pH 7.4)) twice. To each well, 120 μL of a buffer solution for measurement was added; and cells were incubated in a CO2 incubator for 30 minutes; and then cells were subjected to an experiment.
(§9) The 96-well UV plate was set in a fluorescent spectral photometer (FDSS-3000, Hamamatsu Photonics K.K.), and an intracellular calcium concentration was measured. To perform a reaction, 30 μL of a buffered solution for measurement containing an agonist at a variety of concentrations was added. Measurement of an intracellular calcium concentration was performed by irradiating cells with excited light of 340 nm and 380 nm alternately, with measuring a fluorescent intensity at 500 nm, and obtaining a fluorescent intensity ratio of 2-wavelength excitation.
as §6

[6] = target: T3, mouse FP receptor (Mus musculus, UniProt P43117); experiment: Measurement of FP agonist activity (intracellular calcium concentration) in FP-CHO cells; type: cell-based; settings: FP-CHO cells, intracellular calcium concentration; read-out: Agonist activity on various prostanoid receptors: EC50 value (nmol/L) FP
T3 construct: expressed in transfected cells; host or cells: CHO cells (FP-CHO)
Text: as §1, §2, §3, §4, §5, §7, §8, §9, §6

T1 sequence (P43252 whole entry): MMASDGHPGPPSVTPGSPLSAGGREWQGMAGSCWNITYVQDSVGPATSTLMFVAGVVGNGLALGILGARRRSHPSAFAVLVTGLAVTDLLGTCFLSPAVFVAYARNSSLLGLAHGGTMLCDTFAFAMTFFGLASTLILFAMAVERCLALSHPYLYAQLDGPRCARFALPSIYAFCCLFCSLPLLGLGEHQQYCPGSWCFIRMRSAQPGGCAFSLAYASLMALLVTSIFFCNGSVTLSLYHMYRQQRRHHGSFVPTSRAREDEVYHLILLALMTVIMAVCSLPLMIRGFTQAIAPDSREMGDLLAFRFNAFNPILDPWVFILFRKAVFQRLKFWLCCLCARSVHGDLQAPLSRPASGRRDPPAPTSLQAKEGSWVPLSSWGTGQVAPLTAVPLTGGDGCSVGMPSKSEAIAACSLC
T3 sequence (P43117 whole entry): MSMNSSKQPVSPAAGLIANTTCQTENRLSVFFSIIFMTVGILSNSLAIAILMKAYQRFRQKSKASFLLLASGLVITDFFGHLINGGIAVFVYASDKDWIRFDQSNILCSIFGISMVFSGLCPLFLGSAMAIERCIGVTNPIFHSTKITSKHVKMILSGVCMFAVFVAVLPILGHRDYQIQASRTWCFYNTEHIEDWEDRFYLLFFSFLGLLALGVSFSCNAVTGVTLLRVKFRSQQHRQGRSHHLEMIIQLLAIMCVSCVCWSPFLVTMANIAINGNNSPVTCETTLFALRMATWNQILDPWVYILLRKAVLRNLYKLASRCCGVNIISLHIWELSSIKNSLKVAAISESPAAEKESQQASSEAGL

SMILES	Maximum of intraocular pressure lowering rate (%) ([1]; administration dose 50 μg/mL)	Intraocular pressure lowering rate (%) after 24 hours [2] [%]	Maximum intraocular pressure lowering rate (%) [2] [%]	Maximum of intraocular pressure lowering rate (%) ([1]; administration dose 10 μg/mL)	intraocular pressure lowering action as compared with latanoprost [1]	action of raising a protein concentration in an aqueous humor [3]	EC50 [4] [nmol/L]	EC50 [5] [nmol/L]	EC50 [6] [nmol/L]
CC(C)OC(=O)CCC/C=C\C[C@@H]1[C@@H](CC[C@@H](O)CCc2ccccc2)[C@H](O)C[C@@H]1O [Latanoprost, latanoprost, reference compound]	25.4	–	–	–	–	–	–	–	–
CC(C)OC(=O)CCC[C@H]1CC[C@@H]2[C@@H](/C=C/[C@@H](O)COc3cccc(Cl)c3)[C@H](O)C[C@@H]2OC1 [Example 16 (3), 2-Propanyl 4-{(3S,5aR,6R,7R,8aS)-6-[(1E,3R)-4-(3-chlorophenoxy)-3-hydroxy-1-buten-1-yl]-7-hydroxyoctahydro-2H-cyclopenta[b]oxepin-3-yl}butanoate]	–	15.1 ± 2.0	28.8 ± 2.2	35.7	stronger intraocular pressure lowering action	no action of raising a protein concentration in an aqueous humor	–	–	–
CC(C)OC(=O)CCC[C@H]1CC[C@@H]2[C@@H](/C=C/[C@@H](O)COc3cc(F)ccc3F)[C@H](O)C[C@@H]2OC1 [Example 16 (25), 2-Propanyl 4-{(3S,5aR,6R,7R,8aS)-6-[(1E,3R)-4-(2,5-difluorophenoxy)-3-hydroxy-1-buten-1-yl]-7-hydroxyoctahydro-2H-cyclopenta[b]oxepin-3-yl}butanoate]	–	17.5 ± 2.1	26.5 ± 1.7	40.6	stronger intraocular pressure lowering action	no action of raising a protein concentration in an aqueous humor	–	–	–
O=C(O)CCC[C@H]1CC[C@@H]2[C@@H](CCOCCc3ccccc3)[C@H](O)C[C@@H]2OC1 [Example 115, 4-{(3S,5aR,6R,7R,8aS)-7-hydroxy-6-[2-(2-phenylethoxy)ethyl]octahydro-2H-cyclopenta[b]oxepin-3-yl}butanoic acid]	–	–	–	–	–	–	> 10000	> 10000	509
O=C(O)CCC[C@H]1CC[C@@H]2[C@@H](C(F)/C=C/COc3ccccc3)[C@H](O)C[C@@H]2OC1 (stereo partly drawn) [Example 123, 4-{(3S,5aR,6R,7R,8aS)-6-[(2E)-1-fluoro-4-phenoxy-2-buten-1-yl]-7-hydroxyoctahydro-2H-cyclopenta[b]oxepin-3-yl}butanoic acid]	–	–	–	–	–	–	> 10000	> 10000	99.2
